Experimental data published in US20200291018A1, “TAM KINASE INHIBITORS” (SYROS PHARMACEUTICALS, INC., priority 2017, published 2020).

Legend:
FLT3 = target: T1, FLT3 (Homo sapiens, UniProt P36888); assay: TR-FRET kinase activity assay, FLT3; assay type: biochemical; conditions: ATP at Km, 60 minutes
T1 sequence (P36888 27-993): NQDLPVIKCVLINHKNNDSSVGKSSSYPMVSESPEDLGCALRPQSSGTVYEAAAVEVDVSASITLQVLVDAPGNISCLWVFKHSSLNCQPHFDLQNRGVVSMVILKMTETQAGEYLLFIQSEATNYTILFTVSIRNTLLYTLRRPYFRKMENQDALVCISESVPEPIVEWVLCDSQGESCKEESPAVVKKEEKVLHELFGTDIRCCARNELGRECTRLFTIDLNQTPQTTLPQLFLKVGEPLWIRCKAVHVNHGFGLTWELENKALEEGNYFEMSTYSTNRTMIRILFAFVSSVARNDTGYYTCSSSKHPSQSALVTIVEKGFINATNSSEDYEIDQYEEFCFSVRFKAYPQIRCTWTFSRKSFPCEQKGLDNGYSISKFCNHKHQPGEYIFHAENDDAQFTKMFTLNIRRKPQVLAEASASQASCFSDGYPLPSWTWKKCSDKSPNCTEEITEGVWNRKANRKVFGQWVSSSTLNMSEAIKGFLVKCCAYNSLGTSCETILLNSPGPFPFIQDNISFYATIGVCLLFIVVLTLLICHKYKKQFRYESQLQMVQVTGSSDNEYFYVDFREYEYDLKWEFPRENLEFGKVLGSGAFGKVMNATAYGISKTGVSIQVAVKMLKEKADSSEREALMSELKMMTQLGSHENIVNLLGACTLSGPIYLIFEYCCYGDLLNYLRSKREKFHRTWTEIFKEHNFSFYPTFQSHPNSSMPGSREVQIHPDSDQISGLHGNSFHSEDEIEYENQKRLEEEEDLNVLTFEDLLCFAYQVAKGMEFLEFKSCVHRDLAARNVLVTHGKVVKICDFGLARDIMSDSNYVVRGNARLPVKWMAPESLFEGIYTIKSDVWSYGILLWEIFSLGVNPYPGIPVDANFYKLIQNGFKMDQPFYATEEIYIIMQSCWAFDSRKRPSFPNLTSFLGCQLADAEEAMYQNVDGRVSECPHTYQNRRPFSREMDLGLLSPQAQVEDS
Protocol: (§1) IC50 values for compound inhibition of AXL, FLT3, MERTK and TYRO3 activity were determined using a TR-FRET activity assay. A peptide substrate with a fluorescent label is phosphorylated on a tyrosine by each enzyme, where the now phosphorylated product is bound by a Europium-labeled antibody specific to that phosphorylation site. The proximity between the antibody and the substrate gives a signal known as TR-FRET. As the enzyme is inhibited by compound, less phosphorylated peptide product is made, causing a decrease in overall signal.
(§2) Activity assays were performed in a 384-well, small volume, black microplates in an active enzyme volume of 10 uL and final developed volume of 20 uL. Final assay conditions are 50 mM HEPES pH 7.5, 10 mM MgCl2, 1 mM EGTA, 0.01% Brij 35 and 1 mM DTT, all at RT. Enzyme, substrate-labeled peptide and compound are mixed, and then the reaction is initiated with the addition of ATP at Km concentration for each enzyme. The reaction is allowed to run 60 minutes and then quenched with a 12.5 mM EDTA (ethylenediamine tetraacetic acid) solution. The plate is then developed with the addition of Europium-labeled antibody for a final volume of 20 uL and is then incubated for 30 minutes in darkness. Plates are read in a PHERASTAR® plate reader. Data are analyzed in GraphPad PRISM.

MERTK = target: T2, MERTK (Homo sapiens, UniProt Q12866); assay: TR-FRET kinase activity assay, MERTK; assay type: biochemical; conditions: for IC50: TR-FRET activity assay, ATP at Km, 60 minutes, read-out: Mer IC50; for Mer/Flt3 ratio (FLT3 IC50/Mer IC50): ratio calculated as FLT3 IC50/Mer IC50
T2 sequence (Q12866 21-999): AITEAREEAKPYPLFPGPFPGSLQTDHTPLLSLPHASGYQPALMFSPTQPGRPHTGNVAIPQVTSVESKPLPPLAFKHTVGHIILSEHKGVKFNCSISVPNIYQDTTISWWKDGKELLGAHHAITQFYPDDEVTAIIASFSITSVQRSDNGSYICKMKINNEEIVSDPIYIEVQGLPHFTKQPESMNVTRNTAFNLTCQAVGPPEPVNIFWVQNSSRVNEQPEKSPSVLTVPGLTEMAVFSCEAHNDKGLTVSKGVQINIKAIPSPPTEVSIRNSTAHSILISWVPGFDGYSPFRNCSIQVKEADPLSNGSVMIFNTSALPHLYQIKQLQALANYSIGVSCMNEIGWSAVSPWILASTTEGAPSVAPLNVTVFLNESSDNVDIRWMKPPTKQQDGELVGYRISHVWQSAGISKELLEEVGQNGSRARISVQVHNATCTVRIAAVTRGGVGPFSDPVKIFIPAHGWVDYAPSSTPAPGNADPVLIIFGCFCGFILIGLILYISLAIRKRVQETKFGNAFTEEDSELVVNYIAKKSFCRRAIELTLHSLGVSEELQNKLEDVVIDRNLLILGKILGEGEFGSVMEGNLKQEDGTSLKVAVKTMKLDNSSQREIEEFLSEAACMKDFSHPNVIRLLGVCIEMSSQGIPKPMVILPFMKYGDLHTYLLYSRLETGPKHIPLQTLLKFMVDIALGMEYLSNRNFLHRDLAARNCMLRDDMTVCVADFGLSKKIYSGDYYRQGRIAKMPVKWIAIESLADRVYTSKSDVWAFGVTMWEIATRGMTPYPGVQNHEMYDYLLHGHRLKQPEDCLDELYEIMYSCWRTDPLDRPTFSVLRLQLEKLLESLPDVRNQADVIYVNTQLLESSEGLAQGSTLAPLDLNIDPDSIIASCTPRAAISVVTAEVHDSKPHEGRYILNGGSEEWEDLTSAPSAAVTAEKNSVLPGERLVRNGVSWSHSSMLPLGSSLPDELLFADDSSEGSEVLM
Protocol: as §1, §2

IC50 (FLT3)	IC50 (MERTK)	Mer/Flt3 ratio (FLT3 IC50/Mer IC50) (MERTK)	Compound
1000 to 10000 nM	≤ 100 nM	+++ (a ratio of >100)	CCCC(C)Nc1ncc2c(=O)n([C@H]3CCN(C)C[C@@H]3F)cc([C@H]3CC[C@H](O)CC3)c2n1 (stereo partly drawn) [Compound 199]
1000 to 10000 nM	100 to 1000 nM	++ (a ratio of between 10 and 100)	CC[C@H](C)Nc1ncc2c(OC3C[C@@H](C)O[C@@H](C)C3)ncc([C@H]3CC[C@H](O)CC3)c2n1 (stereo partly drawn) [Compound 247]
100 to 1000 nM	≤ 100 nM	+++ (a ratio of >100)	CC[C@H](C)Nc1ncc2c(OC3CC(C)(C)N(C)C(C)(C)C3)ncc([C@H]3CC[C@H](O)CC3)c2n1 [Compound 227]
≤ 100 nM	≤ 100 nM	+ (a ratio of >2.0 and <10)	O[C@H]1CC[C@H](c2cnc(OC3CCNCC3)c3cnc(Nc4ccc(Cl)cc4)nc32)CC1 [Compound 206]
1000 to 10000 nM	≤ 100 nM	+++ (a ratio of >100)	CC[C@H](C)Nc1ncc2c(Cl)ncc([C@H]3CC[C@H](O)CC3)c2n1 [Compound 230]
1000 to 10000 nM	≤ 100 nM	+++ (a ratio of >100)	CC[C@H](C)Nc1ncc2c(OC3C[C@H]4CC[C@@H](C3)O4)ncc([C@H]3CC[C@H](O)CC3)c2n1 (stereo partly drawn) [Compound 237]
1000 to 10000 nM	≤ 100 nM	+++ (a ratio of >100)	CC[C@H](C)Nc1ncc2c(=O)n(C3CCN(S(C)(=O)=O)CC3)cc([C@H]3CC[C@H](O)CC3)c2n1 [Compound 234]
1000 to 10000 nM	≤ 100 nM	+++ (a ratio of >100)	CC[C@H](C)Nc1ncc2c(=O)n(C[C@H]3COCCN3C)cc([C@H]3CC[C@H](O)CC3)c2n1 [Compound 265]
1000 to 10000 nM	≤ 100 nM	+++ (a ratio of >100)	CC[C@H](C)NC1=NC2C([C@H]3CC[C@H](O)CC3)=CN(C(C)C)C(=O)C2C=N1 (stereo partly drawn) [Compound 231]
1000 to 10000 nM	100 to 1000 nM	++ (a ratio of between 10 and 100)	CC(Nc1ncc2c(OC3CCNCC3)ncc([C@H]3CC[C@H](O)CC3)c2n1)c1ccncc1 (stereo partly drawn) [Compound 202]
1000 to 10000 nM	≤ 100 nM	+++ (a ratio of >100)	CC[C@H](C)Nc1ncc2c(NC3CCOCC3)ncc([C@H]3CC[C@H](O)CC3)c2n1 [Compound 217]
100 to 1000 nM	≤ 100 nM	++ (a ratio of between 10 and 100)	CC[C@H](C)Nc1ncc2c(OC3C[C@H]4CC[C@@H](C3)O4)ncc([C@H]3CC[C@H](O)CC3)c2n1 (stereo partly drawn) [Compound 223]
1000 to 10000 nM	≤ 100 nM	++ (a ratio of between 10 and 100)	CC[C@H](C)Nc1ncc2c(N3CC[C@@H](N(C)C)C3)ncc([C@H]3CC[C@H](O)CC3)c2n1 [Compound 222]
100 to 1000 nM	≤ 100 nM	++ (a ratio of between 10 and 100)	CCC[C@@H](C)Nc1ncc2c(OC3CCNCC3)ncc([C@H]3CC[C@@H](O)CC3)c2n1 [Compound 204]
1000 to 10000 nM	≤ 100 nM	++ (a ratio of between 10 and 100)	CCC(CC)Nc1ncc2c(OC3CCNCC3)ncc([C@H]3CC[C@H](O)CC3)c2n1 [Compound 228]
1000 to 10000 nM	≤ 100 nM	+++ (a ratio of >100)	CC[C@H](C)Nc1ncc2c(OC3CCN(C)CC3)ncc([C@H]3CC[C@H](O)CC3)c2n1 [Compound 221]
100 to 1000 nM	≤ 100 nM	+++ (a ratio of >100)	CC[C@H](C)Nc1ncc2c(OC3CCN(S(C)(=O)=O)CC3)ncc([C@H]3CC[C@H](O)CC3)c2n1 [Compound 233]
≤ 100 nM	≤ 100 nM	++ (a ratio of between 10 and 100)	O[C@H]1CC[C@H](c2cnc(OC3CCNCC3)c3cnc(NCCC(F)(F)F)nc32)CC1 [Compound 224]
100 to 1000 nM	≤ 100 nM	+ (a ratio of >2.0 and <10)	COC(=O)c1ccc(Nc2ncc3c(OC4CCNCC4)ncc([C@H]4CC[C@H](O)CC4)c3n2)cc1 [Compound 272]
100 to 1000 nM	≤ 100 nM	++ (a ratio of between 10 and 100)	O[C@H]1CC[C@H](c2cnc(OC3CCNCC3)c3cnc(NC4CCOCC4)nc32)CC1 [Compound 211]
1000 to 10000 nM	≤ 100 nM	+++ (a ratio of >100)	CCC[C@@H](C)Nc1ncc2c(OC3CCNCC3)ncc([C@H]3CC[C@H](O)CC3)c2n1 [Compound 196]
1000 to 10000 nM	≤ 100 nM	+++ (a ratio of >100)	CC[C@H](C)Nc1ncc2c(=O)n(CC34CCC(O)(CC3)CC4)cc([C@H]3CC[C@H](O)CC3)c2n1 [Compound 257]
1000 to 10000 nM	≤ 100 nM	+++ (a ratio of >100)	COC[C@H](C)Nc1ncc2c(OC3CCOCC3)ncc(C3CCC4(CC3)OCCO4)c2n1 [Compound 243]
1000 to 10000 nM	1000 to 10000 nM	+ (a ratio of >2.0 and <10)	CCOc1ncc(CC2CCN(C(=O)OC(C)(C)C)CC2)c2nc(N[C@@H](C)CC)ncc12 [Compound 254]
≤ 100 nM	≤ 100 nM	+ (a ratio of >2.0 and <10)	O[C@H]1CC[C@H](c2cnc(OC3CCNCC3)c3cnc(Nc4cccc(F)c4)nc32)CC1 [Compound 270]
1000 to 10000 nM	≤ 100 nM	+++ (a ratio of >100)	CC[C@H](C)Nc1ncc2c(=O)n(C[C@@H]3COCCN3C)cc([C@H]3CC[C@H](O)CC3)c2n1 [Compound 263]
≤ 100 nM	≤ 100 nM	+ (a ratio of >2.0 and <10)	O[C@H]1CC[C@H](c2cnc(OC3CCNCC3)c3cnc(Nc4ccc(F)cc4)nc32)CC1 [Compound 269]
